Experimental data reported in article PMC4810224, “Validation of the Target Protein of Insecticidal Dihydroagarofuran Sesquiterpene Polyesters” (Toxins, 2016).

The compounds below were run against T1, subunit H of V-ATPase (recombinant subunit H) (Mythimna separata, UniProt A0A0D3L6K4) (assay: microscale thermophoresis (Monolith NT.[…]), RED-NHS labelled protein).
T1 construct: full CDS in pET-15b, N-terminal His tag, E. coli BL21 (DE3), Ni-NTA twice, ~55 kDa, free subunit
T1 sequence (A0A0D3L6K4 1-474): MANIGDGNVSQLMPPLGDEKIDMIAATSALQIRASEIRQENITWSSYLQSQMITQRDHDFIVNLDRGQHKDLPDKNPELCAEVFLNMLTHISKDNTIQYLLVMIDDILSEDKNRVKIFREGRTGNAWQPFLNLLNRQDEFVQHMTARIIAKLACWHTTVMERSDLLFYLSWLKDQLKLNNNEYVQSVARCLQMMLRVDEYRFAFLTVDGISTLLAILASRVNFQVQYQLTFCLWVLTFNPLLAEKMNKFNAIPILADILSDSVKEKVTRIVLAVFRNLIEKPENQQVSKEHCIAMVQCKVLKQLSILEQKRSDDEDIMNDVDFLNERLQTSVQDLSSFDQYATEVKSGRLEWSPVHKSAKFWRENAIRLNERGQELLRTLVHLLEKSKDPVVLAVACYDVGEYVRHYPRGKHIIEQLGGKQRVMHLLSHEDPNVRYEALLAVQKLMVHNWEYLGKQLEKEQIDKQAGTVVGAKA
Assay type: binding

Row | SMILES | Kd [µM]
1 | CC(=O)O[C@H]1C[C@](C)(O)[C@]23OC(C)(C)[C@H]([C@H](OC(=O)C(C)C)[C@@H](OC(=O)c4ccccc4)[C@]2(COC(=O)C(C)C)[C@H]1OC(C)=O)[C@H]3OC(=O)CN [CV-6-aminoacetic acid ester] | 156
2 | CNc1ccccc1C(=O)O[C@@H]1[C@H]2[C@H](OC(=O)C(C)C)[C@@H](OC(=O)c3ccccc3)[C@]3(COC(=O)C(C)C)[C@@H](OC(C)=O)[C@@H](OC(C)=O)C[C@](C)(O)[C@@]13OC2(C)C [CV-6-N-methylisatoic] | 213
3 | CC(=O)O[C@H]1C[C@](C)(O)[C@]23OC(C)(C)[C@H]([C@H](OC(=O)C(C)C)[C@@H](OC(=O)c4ccccc4)[C@]2(COC(=O)C(C)C)[C@H]1OC(C)=O)[C@H]3OC(=O)C(C)N (stereo partly drawn) [CV-6-α-aminopropanoic acid ester] | 144
